Test results: patent US9247759B2, “Identification of human T2R receptors that respond to bitter compounds that elicit the bitter taste in compositions, and the use thereof in assays to identify compounds that inhibit (block) bitter taste in compositions and use thereof” (SENOMYX, INC., priority 2007, dated 2016)
pIC50: −log10 of the molar value. Where two headings read alike, the source gives them in different places.

Key:
[1] = target: T1, hT2R14 (Homo sapiens (Human), UniProt Q9NYV8); test: hT2R14 antagonist high-throughput FLIPR assay, stable cell line with G16g44, agonist aristolochic acid; type: cell-based
T1 sequence (Q9NYV8 whole entry): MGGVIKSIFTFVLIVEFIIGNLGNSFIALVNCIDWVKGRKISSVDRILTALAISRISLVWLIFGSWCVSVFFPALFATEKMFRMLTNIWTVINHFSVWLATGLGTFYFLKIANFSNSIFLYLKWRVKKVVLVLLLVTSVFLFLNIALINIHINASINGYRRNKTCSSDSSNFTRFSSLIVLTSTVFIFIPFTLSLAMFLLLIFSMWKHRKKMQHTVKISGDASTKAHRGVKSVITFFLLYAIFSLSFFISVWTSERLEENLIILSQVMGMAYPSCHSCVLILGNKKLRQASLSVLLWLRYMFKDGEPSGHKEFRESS
Summary of the method: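 Compounds were co-applied with 3 μM aristolochic acid, a dose set to reach 70-80% of maximal hT2R14 activation. Read-out was FLIPR fluorescence in a stable HEK293 line co-expressing hT2R14 and G16g44.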

[2] = target: hT2R3 (Homo sapiens (Human), UniProt Q9NYW6); test: hT2R panel inhibition, transient HEK293 G16g44, agonist Chloroquine pH6.5 50 μM; type: cell-based; details: HEK293, compound at 25 μM
Chain of hT2R3 (Q9NYW6 whole entry): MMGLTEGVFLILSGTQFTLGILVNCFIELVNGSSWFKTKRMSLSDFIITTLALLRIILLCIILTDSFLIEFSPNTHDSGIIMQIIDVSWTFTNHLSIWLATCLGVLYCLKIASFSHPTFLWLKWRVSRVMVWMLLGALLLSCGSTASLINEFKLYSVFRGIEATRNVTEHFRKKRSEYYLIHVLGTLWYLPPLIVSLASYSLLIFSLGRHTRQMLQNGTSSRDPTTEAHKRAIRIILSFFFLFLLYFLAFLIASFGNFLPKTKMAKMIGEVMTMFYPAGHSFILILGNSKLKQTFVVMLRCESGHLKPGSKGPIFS
Summary of the method: (§1)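 Cells stably bearing the promiscuous G protein received one human T2R each by transient transfection and were assayed functionally. Ligands used at EC80; the test compound's inhibition equals the lowered activity.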

[3] = target: hT2R5 (Homo sapiens (Human), UniProt Q9NYW4); test: hT2R panel inhibition, transient HEK293 G16g44, agonist Picoline 10 mM; type: cell-based; details: HEK293, compound at 25 μM
Chain of hT2R5 (Q9NYW4 whole entry): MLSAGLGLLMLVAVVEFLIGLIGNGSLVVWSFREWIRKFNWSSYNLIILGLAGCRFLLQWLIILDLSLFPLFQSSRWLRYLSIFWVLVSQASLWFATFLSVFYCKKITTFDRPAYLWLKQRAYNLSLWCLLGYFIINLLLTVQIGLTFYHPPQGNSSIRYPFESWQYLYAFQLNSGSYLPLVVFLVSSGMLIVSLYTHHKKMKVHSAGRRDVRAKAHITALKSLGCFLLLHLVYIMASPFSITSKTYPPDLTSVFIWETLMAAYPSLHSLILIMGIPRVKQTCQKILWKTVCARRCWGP
Summary of the method: as §1

[4] = target: hT2R10 (Homo sapiens (Human), UniProt Q9NYW0); test: hT2R panel inhibition, transient HEK293 G16g44, agonist Strychnine 50 μM; type: cell-based; details: HEK293, read-out: screening result against bitter receptor 10, compound at 25 μM; receptor activated to EC80 with the corresponding agonist
Chain of hT2R10 (Q9NYW0 whole entry): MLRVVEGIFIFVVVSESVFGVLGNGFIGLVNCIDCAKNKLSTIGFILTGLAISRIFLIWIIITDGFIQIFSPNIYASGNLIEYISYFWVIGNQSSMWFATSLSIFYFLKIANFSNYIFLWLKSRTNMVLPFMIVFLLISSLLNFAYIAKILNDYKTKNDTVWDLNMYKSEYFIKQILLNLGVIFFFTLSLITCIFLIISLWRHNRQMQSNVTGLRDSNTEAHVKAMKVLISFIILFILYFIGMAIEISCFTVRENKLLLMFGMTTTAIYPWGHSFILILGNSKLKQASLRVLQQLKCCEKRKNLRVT

[5] = target: hT2R13 (Homo sapiens (Human), UniProt Q9NYV9); test: hT2R panel inhibition, transient HEK293 G16g44, agonist Oxyphenonium 1 mM; type: cell-based; details: HEK293, compound at 25 μM
Chain of hT2R13 (Q9NYV9 whole entry): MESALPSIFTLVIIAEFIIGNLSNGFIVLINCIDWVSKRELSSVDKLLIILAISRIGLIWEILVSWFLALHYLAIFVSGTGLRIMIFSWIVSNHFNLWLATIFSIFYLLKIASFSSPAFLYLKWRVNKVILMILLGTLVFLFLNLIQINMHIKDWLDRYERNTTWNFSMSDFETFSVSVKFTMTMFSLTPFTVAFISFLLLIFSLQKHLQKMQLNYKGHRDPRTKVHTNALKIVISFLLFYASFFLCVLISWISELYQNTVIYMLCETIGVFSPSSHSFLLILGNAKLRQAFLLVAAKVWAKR
Experimental: Specifically, in order to evaluate the inhibitory selectivity of the Compound C compound, this compound was tested against 22 human T2Rs which were deorphaned by Senomyx. These receptors and the bitter ligands that activate these human T2Rs are reported in earlier patent applications which are incorporated by reference herein. These 22 human T2Rs are hT2R1, 3, 4, 5, 7, 8, 9, 10, 13, 14, 16, 44, 51, 54, 55, 61, 63, 64, 65, 67, 71 and 75. The amino acid and nucleic acid sequences of all of these T2Rs may be found in these earlier patent applications. These human T2Rs were each individually transiently transfected into HEK293 cells that stably express the promiscuous G protein G16g44 and functional assays were effected using these receptors as disclosed in these same patent applications. […] The ligands were used at EC80 concentration levels. The list of bitter ligands utilized and the tested ligand concentrations are contained in Table 5 of this example.
Relating to the foregoing, FIG. 5 contains experimental results wherein Compound C was tested with different agonist compounds. The inhibition activity is represented by the reduction of receptor activity in the presence of Compound C. […] These 13 hT2Rs are hT2R3, 7, 10, 14, 16, 44, 51, 55, 61, 63, 64, 65, and 71.

[6] = target: T1, hT2R14; test: hT2R panel inhibition, transient HEK293 G16g44, agonist Aristolochic Acid 2 μM; type: cell-based; details: HEK293, compound at 25 μM
Summary of the method: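 Agonist challenge was at EC80, with 0.5 mM andrographolide on hT2R8 and 2 μM aristolochic acid on hT2R14. Inhibition was measured in functional assays in HEK293 cells that stably carry the promiscuous G protein G16g44 and were transiently transfected with the individual receptor.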

[7] = target: hT2R16 (Homo sapiens (Human), UniProt Q9NYV7); test: hT2R panel inhibition, transient HEK293 G16g44, agonist Salicin 1 mM; type: cell-based; details: HEK293, compound at 25 μM; receptor activated to EC80 with the corresponding agonist; read-out: screening result against bitter receptor 16
Chain of hT2R16 (Q9NYV7 whole entry): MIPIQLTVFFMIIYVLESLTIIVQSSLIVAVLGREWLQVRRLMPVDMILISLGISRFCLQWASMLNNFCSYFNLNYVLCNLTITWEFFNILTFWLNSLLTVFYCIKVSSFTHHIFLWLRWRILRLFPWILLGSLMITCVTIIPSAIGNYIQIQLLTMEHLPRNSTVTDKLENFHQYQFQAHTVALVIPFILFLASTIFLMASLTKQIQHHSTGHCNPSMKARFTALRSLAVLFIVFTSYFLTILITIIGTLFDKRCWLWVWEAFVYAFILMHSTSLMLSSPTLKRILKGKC
Summary of the method: as §1

[8] = test system: hT2R44; test: hT2R panel inhibition, transient HEK293 G16g44, agonist Denatonium 0.5 μM; type: cell-based, human; details: compound at 25 μM; for screening result against bitter receptor 44: receptor activated to EC80 with the corresponding agonist; for inhibition of bitter receptor 44: receptor activated to EC80 with agonist
Summary of the method: as §1

[9] = test system: hT2R54; test: hT2R panel inhibition, transient HEK293 G16g44, agonist Ranitidine 5 mM; type: cell-based, human; details: compound at 25 μM; receptor activated to EC80 with the corresponding agonist
Summary of the method: as §1

[10] = test system: hT2R55; test: hT2R panel inhibition, transient HEK293 G16g44, agonist Cinchonine 150 μM; type: cell-based, human; details: compound at 25 μM; receptor activated to EC80 with the corresponding agonist
Summary of the method: as §1

[11] = target: hT2R61 (Homo sapiens (Human), UniProt P59537); test: hT2R panel inhibition, transient HEK293 G16g44, agonist Aristolochic Acid 25 nM; type: cell-based; details: HEK293, compound at 25 μM
Chain of hT2R61 (P59537 whole entry): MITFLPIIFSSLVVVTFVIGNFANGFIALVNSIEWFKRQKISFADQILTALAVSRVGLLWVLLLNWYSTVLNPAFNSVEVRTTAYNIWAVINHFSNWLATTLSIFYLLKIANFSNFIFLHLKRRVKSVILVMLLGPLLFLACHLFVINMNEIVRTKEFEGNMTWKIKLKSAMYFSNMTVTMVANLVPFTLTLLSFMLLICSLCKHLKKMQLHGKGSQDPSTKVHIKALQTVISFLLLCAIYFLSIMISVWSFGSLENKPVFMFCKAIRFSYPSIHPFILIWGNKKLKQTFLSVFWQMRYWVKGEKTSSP
Summary of the method: as §1

[12] = test system: hT2R63; test: hT2R panel inhibition, transient HEK293 G16g44, agonist Caffeine 1 mM or Andrographolide 100 μM; type: cell-based, human; details: compound at 25 μM; for screening result against bitter receptor 63: receptor activated to EC80 with the corresponding agonist
Summary of the method: as §1

[13] = target: hT2R64 (Homo sapiens (Human), UniProt P59538); test: hT2R panel inhibition, transient HEK293 G16g44, agonist Aristolochic Acid 1 μM; type: cell-based; details: HEK293, compound at 25 μM
Chain of hT2R64 (P59538 whole entry): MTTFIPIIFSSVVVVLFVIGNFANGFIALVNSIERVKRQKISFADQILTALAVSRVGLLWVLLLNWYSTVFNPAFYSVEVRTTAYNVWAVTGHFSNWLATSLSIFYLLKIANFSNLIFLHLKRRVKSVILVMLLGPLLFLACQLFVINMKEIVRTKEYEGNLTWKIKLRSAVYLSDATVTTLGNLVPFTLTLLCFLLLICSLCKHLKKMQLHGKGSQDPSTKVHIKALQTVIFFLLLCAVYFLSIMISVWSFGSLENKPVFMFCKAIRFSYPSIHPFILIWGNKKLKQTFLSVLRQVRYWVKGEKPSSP
Summary of the method: as §1

[14] = target: hT2R71 (Homo sapiens (Human), UniProt P59536); test: hT2R panel inhibition, transient HEK293 G16g44, agonist Picric Acid 10 μM; type: cell-based; details: HEK293, compound at 25 μM
Chain of hT2R71 (P59536 whole entry): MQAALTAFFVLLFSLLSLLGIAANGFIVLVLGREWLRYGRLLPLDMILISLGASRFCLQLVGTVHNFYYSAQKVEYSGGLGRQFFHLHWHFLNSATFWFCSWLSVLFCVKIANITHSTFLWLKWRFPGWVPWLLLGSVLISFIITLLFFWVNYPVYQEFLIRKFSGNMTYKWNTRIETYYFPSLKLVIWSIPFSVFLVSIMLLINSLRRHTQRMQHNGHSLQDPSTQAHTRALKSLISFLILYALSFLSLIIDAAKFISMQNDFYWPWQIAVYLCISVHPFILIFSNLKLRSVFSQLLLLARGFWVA
Summary of the method: as §1

[15] = target: hT2R7 (Homo sapiens (Human), UniProt Q9NYW3); test: hT2R panel inhibition, transient HEK293 G16g44, agonist Chloroquine pH6.5 10 mM; type: cell-based; details: HEK293, compound at 25 μM
Chain of hT2R7 (Q9NYW3 whole entry): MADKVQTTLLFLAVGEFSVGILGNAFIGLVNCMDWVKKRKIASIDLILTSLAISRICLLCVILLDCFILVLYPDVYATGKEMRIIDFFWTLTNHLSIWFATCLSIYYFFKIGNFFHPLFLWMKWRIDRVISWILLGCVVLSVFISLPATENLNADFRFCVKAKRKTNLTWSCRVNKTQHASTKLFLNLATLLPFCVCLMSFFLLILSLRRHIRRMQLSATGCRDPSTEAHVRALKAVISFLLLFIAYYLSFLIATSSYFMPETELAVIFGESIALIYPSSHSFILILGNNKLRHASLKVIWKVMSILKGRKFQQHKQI
Summary of the method: as §1

[16] = target: hT2R51 (Homo sapiens (Human), UniProt P59533); test: hT2R panel inhibition, transient HEK293 G16g44, agonist Prop 2.5 μM; type: cell-based; details: HEK293, compound at 25 μM; receptor activated to EC80 with the corresponding agonist; read-out: screening result against bitter receptor 51
Chain of hT2R51 (P59533 whole entry): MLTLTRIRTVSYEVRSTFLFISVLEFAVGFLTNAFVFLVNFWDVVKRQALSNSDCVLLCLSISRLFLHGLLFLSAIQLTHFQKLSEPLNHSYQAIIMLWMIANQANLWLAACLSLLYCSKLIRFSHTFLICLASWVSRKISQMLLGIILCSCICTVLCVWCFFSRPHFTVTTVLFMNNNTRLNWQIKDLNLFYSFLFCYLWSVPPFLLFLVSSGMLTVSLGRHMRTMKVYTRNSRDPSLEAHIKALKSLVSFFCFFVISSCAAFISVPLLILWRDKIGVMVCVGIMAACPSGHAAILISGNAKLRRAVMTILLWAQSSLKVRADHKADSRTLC
Summary of the method: as §1

[17] = test system: hT2R65; test: hT2R panel inhibition, transient HEK293 G16g44, agonist Oleuropein 1 mM; type: cell-based, human; details: compound at 25 μM; receptor activated to EC80 with the corresponding agonist
Summary of the method: as §1

[18] = test system: hT2R67; test: hT2R panel inhibition, transient HEK293 G16g44, agonist Andrographolide 5 μM; type: cell-based, human; details: compound at 25 μM; receptor activated to EC80 with the corresponding agonist
Summary of the method: as §1

[19] = read-out: IC50 on hT2R14 bitter receptor
[20] = receptor activated to EC80 with the corresponding agonist, read-out: screening result against bitter receptor 3
[21] = receptor activated to EC80 with the corresponding agonist, read-out: screening result against bitter receptor 5
[22] = receptor activated to EC80 with the corresponding agonist, read-out: screening result against bitter receptor 13
[23] = receptor activated to EC80 with the corresponding agonist, read-out: screening result against bitter receptor 14
[24] = receptor activated to EC80 with the corresponding agonist, read-out: screening result against bitter receptor 61
[25] = receptor activated to EC80 with the corresponding agonist, read-out: screening result against bitter receptor 64
[26] = receptor activated to EC80 with the corresponding agonist, read-out: screening result against bitter receptor 71
[27] = receptor activated to EC80 with the corresponding agonist, read-out: screening result against bitter receptor 7
[28] = receptor activated to EC80 with agonist, read-out: inhibition of bitter receptor 13
[29] = receptor activated to EC80 with agonist, read-out: inhibition of bitter receptor 14
[30] = receptor activated to EC80 with agonist, read-out: inhibition of bitter receptor 71
[31] = receptor activated to EC80 with agonist, read-out: inhibition of bitter receptor 5
[32] = receptor activated to EC80 with agonist, read-out: inhibition of bitter receptor 7
[33] = receptor activated to EC80 with agonist, read-out: inhibition of bitter receptor 61

| Compound | pIC50 [1, 19] | inhibition at 25 µM [2, 20] [%] | inhibition at 25 µM [3, 21] [%] | inhibition at 25 µM [4] [%] | inhibition at 25 µM [5, 22] [%] | inhibition at 25 µM [6, 23] [%] | inhibition at 25 µM [7] [%] | screening result against bitter receptor 44 [8] | screening result against bitter receptor 54 [9] | screening result against bitter receptor 55 [10] | inhibition at 25 µM [11, 24] [%] | screening result against bitter receptor 63 [12] | inhibition at 25 µM [13, 25] [%] | inhibition at 25 µM [14, 26] [%] | inhibition at 25 µM [15, 27] [%] | inhibition at 25 µM [16] [%] | screening result against bitter receptor 67 [18] | inhibition at 25 µM [5, 28] [%] | inhibition at 25 µM [6, 29] [%] | inhibition of bitter receptor 44 [8] | also measured |
| --- | --- | --- | --- | --- | --- | --- | --- | --- | --- | --- | --- | --- | --- | --- | --- | --- | --- | --- | --- | --- | --- |
| COc1ccc(CN(Cc2ccc(OC)c(F)c2)S(=O)(=O)c2ccc(C(=O)O)cc2)cc1 [Example 5-41, 4-(N-(3-fluoro-4-methoxybenzyl)-N-(4-methoxybenzyl)sulfamoyl)-benzoic acid] | 5.95 | 40 to 60 | 20 to 40 | 40 to 60 | 20 to 40 | > 80 | 20 to 40 | +++ (60% to 80% inhibition = +++) | + (20% to 40% inhibition = +) | +++ (60% to 80% inhibition = +++) | > 80 | ++++ (80% or greater inhibition = ++++) | 60 to 80 | 40 to 60 | – | – | – | – | – | – | – |
| COc1ccc(CN(Cc2ccc(F)c(OC)c2)S(=O)(=O)c2ccc(C(=O)O)cc2)cc1 [Example 5-50, 4-(N-(4-fluoro-3-methoxybenzyl)-N-(4-methoxybenzyl)sulfamoyl)-benzoic acid] | 5.78 | 40 to 60 | 20 to 40 | 20 to 40 | 20 to 40 | > 80 | 40 to 60 | +++ (60% to 80% inhibition = +++) | – | ++++ (80% or greater inhibition = ++++) | > 80 | ++++ (80% or greater inhibition = ++++) | 60 to 80 | 60 to 80 | 20 to 40 | 20 to 40 | ++ (40% to 60% inhibition = ++) | – | – | – | screening result against bitter receptor 65 [17]: ++ (40% to 60% inhibition = ++) |
| O=C(O)c1ccc(S(=O)(=O)N(Cc2ccccc2)Cc2ccc3c(c2)OCO3)cc1 [Example 5-93, 4-(N-(benzo[d][1,3]dioxol-5-ylmethyl)-N-benzylsulfamoyl)benzoic acid] | – | – | 20 to 40 | 40 to 60 | 20 to 40 | > 80 | 40 to 60 | +++ (60% to 80% inhibition = +++) | +++ (60% to 80% inhibition = +++) | ++++ (80% or greater inhibition = ++++) | > 80 | ++++ (80% or greater inhibition = ++++) | > 80 | 60 to 80 | 20 to 40 | 40 to 60 | ++ (40% to 60% inhibition = ++) | – | – | – | – |
| Cn1c(=O)c(=O)n(C)c2cc(S(=O)(=O)Nc3ccc4c(c3)OCCO4)ccc21 [Example 6-3, N-(2,3-dihydrobenzo[b][1,4]dioxin-6-yl)-1,4-dimethyl-2,3-dioxo-1,2,3,4-tetrahydroquinoxaline-6-sulfonamide] | 5.11 | – | – | – | – | – | – | – | – | – | – | – | – | – | – | – | – | 20 to 40 | > 80 | + (20% to 40% inhibition = +) | inhibition of bitter receptor 63 ([12]; receptor activated to EC80 with agonist): + (20% to 40% inhibition = +); inhibition at 25 µM [14, 30]: 20 to 40% |
| Cc1cc2c(cc1S(=O)(=O)Nc1ccc(F)cc1)n(C)c(=O)c(=O)n2C [Example 6-10, N-(4-fluorophenyl)-1,4,7-trimethyl-2,3-dioxo-1,2,3,4-tetrahydroquinoxaline-6-sulfonamide] | – | – | – | – | – | – | – | – | – | – | – | – | – | – | – | – | – | 40 to 60 | 40 to 60 | + (20% to 40% inhibition = +) | pIC50 ([1]; Table D, read-out: hT2R14 IC50): 4.90; inhibition at 25 µM ([2]; receptor activated to EC80 with agonist, read-out: inhibition of bitter receptor 3): 20 to 40%; inhibition at 25 µM [3, 31]: 20 to 40%; inhibition at 25 µM [15, 32]: 20 to 40%; inhibition at 25 µM [11, 33]: 20 to 40%; inhibition at 25 µM ([13]; receptor activated to EC80 with agonist, read-out: inhibition of bitter receptor 64): 20 to 40% |
| CCN(C(=O)CN(C)S(=O)(=O)c1ccc2c(c1)n(C)c(=O)c(=O)n2C)c1cccc(C)c1 [Example 6-11, N-ethyl-N-m-tolyl-2-(N,1,4-trimethyl-2,3-dioxo-1,2,3,4-tetrahydroquinoxaline-6-sulfonamido)acetamide] | – | – | – | – | – | – | – | – | – | – | – | – | – | – | – | – | – | 40 to 60 | 20 to 40 | – | pIC50 ([1]; Table D, read-out: hT2R14 IC50): 4.83; inhibition at 25 µM [3, 31]: 20 to 40%; inhibition at 25 µM [15, 32]: 20 to 40%; inhibition at 25 µM [11, 33]: 20 to 40%; inhibition at 25 µM [14, 30]: 20 to 40% |
